ChEMBL document CHEMBL5550138, “Histidine-Covalent Stapled Alpha-Helical Peptides Targeting hMcl-1” (J Med Chem, 2024)
Calls of active or inactive are those of the source. The rule behind the calls is not given here. Positions of bridges follow the written chain, without caps; N, C: chain ends. Non-standard residues stand in square brackets, D forms with d. Residues, ends and D or L forms follow the SMILES beside them. *: point of attachment. Benzoyl(2-OMe,5-SO2F) = COc1ccc(S(=O)(=O)F)cc1C(=O)*; Ser(allyl) = C=CCOC[C@H](N)C(=O)O; S5 = C=CCCC[C@](C)(N)C(=O)O; Dap = NC[C@H](N)C(=O)O

How the values were obtained:
Homo sapiens [1] = species: Homo sapiens; test: (§1) Covalent binding affinity to N-terminal His6-tagged human Mcl-1 ligand binding domain (172 to 323 residues) His252Ala mutant expressed in Escherichia coli BL21(DE3) gold pLysS cells assessed as stable covalent adduct formation by measuring band shift at 100 uM incubated for 16 hrs by SDS PAGE analysis
[2] = target: T1, Bcl-2-related protein A1 (Homo sapiens) (UniProt Q16548); test: Covalent binding affinity to N-terminal His6-tagged human Bfl-1 (1 to 149 residues) assessed as band shift at 100 uM incubated for 16 hrs by SDS PAGE analysis
T1 sequence (whole entry): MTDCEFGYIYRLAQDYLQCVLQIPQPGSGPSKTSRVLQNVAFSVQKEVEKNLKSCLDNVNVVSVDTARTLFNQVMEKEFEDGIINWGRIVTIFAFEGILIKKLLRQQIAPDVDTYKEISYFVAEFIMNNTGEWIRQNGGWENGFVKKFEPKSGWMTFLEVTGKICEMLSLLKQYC

[3] = target: T2, Induced myeloid leukemia cell differentiation protein Mcl-1 (Homo sapiens, UniProt Q07820); test: Displacement of biotinylated BH3 peptide from N-terminal His6-tagged human Mcl-1 ligand binding domain (172 to 323 residues) expressed in Escherichia coli BL21(DE3) gold pLysS cells preincubated with protein for 2 hrs followed by incubation with BH3 peptide for 2 hrs by DELFIA assay
T2 sequence (Q07820 whole entry, the tested form may be a part): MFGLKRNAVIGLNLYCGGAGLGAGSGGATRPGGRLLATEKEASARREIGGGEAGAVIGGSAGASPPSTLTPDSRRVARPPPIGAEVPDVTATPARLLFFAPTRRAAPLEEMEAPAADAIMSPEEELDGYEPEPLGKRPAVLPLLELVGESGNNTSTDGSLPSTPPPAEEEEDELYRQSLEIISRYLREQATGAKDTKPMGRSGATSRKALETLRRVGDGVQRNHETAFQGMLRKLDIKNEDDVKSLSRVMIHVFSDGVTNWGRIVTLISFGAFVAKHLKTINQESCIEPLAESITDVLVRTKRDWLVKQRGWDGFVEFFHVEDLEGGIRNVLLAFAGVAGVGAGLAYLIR

[4] = target: T2, Induced myeloid leukemia cell differentiation protein Mcl-1; test: Covalent binding affinity to N-terminal His6-tagged human Mcl-1 ligand binding domain (172 to 323 residues) expressed in Escherichia coli BL21(DE3) gold pLysS cells assessed as stable covalent adduct formation by measuring band shift at 100 uM incubated for 16 hrs by SDS PAGE analysis
Homo sapiens [5] = species: Homo sapiens; test: as §1, with “Lys234Ala” for “His252Ala”
A549 = test: Induction of cell lysis in NucLight Red-labeled human A549 cells assessed as cell bursting at 100 uM measured after 20 mins by IncuCyte S3 live cell analysis based fluorescence microscopy; assay type: toxicity; conditions: a549, 20 min

SMILES | Activity (Homo sapiens [1]) | Activity [2] | IC50 [3] | Activity [4] | Activity (Homo sapiens [5]) | Activity (A549)
CC[C@H](C)[C@H](NC(=O)[C@H](C)NC(=O)[C@H](CCCNC(=N)N)NC(=O)[C@H](CC(C)C)NC(=O)[C@H](CCC(N)=O)NC(=O)[C@]1(C)CCC/C=C/CCC[C@](C)(NC(C)=O)C(=O)N[C@@H](CNC(=O)c2cc(S(=O)(=O)F)ccc2OC)C(=O)N[C@@H]([C@@H](C)CC)C(=O)N[C@@H](C)C(=O)N1)C(=O)NCC(=O)N[C@@H](CC(=O)O)C(=O)N[C@@H](C)C(=O)N[C@@H](Cc1ccccc1)C(N)=O (Ac-[S5][Dap](Benzoyl(2-OMe,5-SO2F))IA[S5]QLRAIGDAF-NH2; staple (E) 1-5) | Active | inactive | 17 nM | Active | Active | 
CC[C@H](C)[C@H](NC(=O)[C@H](CNC(=O)c1cc(S(=O)(=O)F)ccc1OC)NC(C)=O)C(=O)N[C@@H](C)C(=O)N[C@@]1(C)CCC/C=C\CCC[C@@](C)(C(=O)N[C@H](C(=O)NCC(=O)N[C@@H](CC(=O)O)C(=O)N[C@@H](CCCNC(=N)N)C(=O)N[C@@H](Cc2ccccc2)C(N)=O)[C@@H](C)CC)NC(=O)[C@H](CCCNC(=N)N)NC(=O)[C@H](CC(C)C)NC(=O)[C@H](CCC(N)=O)NC1=O (Ac-[Dap](Benzoyl(2-OMe,5-SO2F))IA[S5]QLR[S5]IGDRF-NH2; staple (Z) 4-8) | Active | inactive | 14 nM | Active | Active | 
CC[C@H](C)[C@H](NC(=O)[C@H](CCCNC(=N)N)NC(=O)[C@]1(C)CCC/C=C\CCC[C@](C)(NC(=O)[C@@H](NC(=O)[C@@H](CNC(=O)c2cc(S(=O)(=O)F)ccc2OC)NC(C)=O)[C@@H](C)CC)C(=O)N[C@H](CCC(=O)O)C(=O)N[C@@H](CCC(N)=O)C(=O)N[C@@H](CC(C)C)C(=O)N1)C(=O)NCC(=O)N[C@@H](CC(=O)O)C(=O)N[C@@H](CCCNC(=N)N)C(=O)N[C@@H](Cc1ccccc1)C(N)=O | Active | inactive | 174 nM | Active | Active | 
CC[C@H](C)[C@H](NC(=O)[C@H](C)NC(=O)[C@H](CCCNC(=N)N)NC(=O)[C@H](CC(C)C)NC(=O)[C@H](CCC(N)=O)NC(=O)[C@]1(C)CCC/C=C/CCC[C@](C)(NC(C)=O)C(=O)N[C@@H](CNC(=O)c2cc(S(=O)(=O)F)ccc2OC)C(=O)N[C@@H]([C@@H](C)CC)C(=O)N[C@@H](C)C(=O)N1)C(=O)NCC(=O)N[C@@H](CC(=O)O)C(=O)N[C@@H](CCCNC(=N)N)C(=O)N[C@@H](Cc1ccccc1)C(N)=O (Ac-[S5][Dap](Benzoyl(2-OMe,5-SO2F))IA[S5]QLRAIGDRF-NH2; staple (E) 1-5) | Active | inactive | 35 nM | Active | Active | 
CC[C@H](C)[C@H](NC(=O)[C@@H]1CCCCn2cc(nn2)CCC[C@H](NC(=O)[C@H](C)NC(=O)[C@@H](NC(=O)[C@H](CNC(=O)c2cc(S(=O)(=O)F)ccc2OC)NC(C)=O)[C@@H](C)CC)C(=O)N[C@@H](CCC(N)=O)C(=O)N[C@@H](CC(C)C)C(=O)N[C@@H](CCCNC(=N)N)C(=O)N1)C(=O)NCC(=O)N[C@@H](CC(=O)O)C(=O)N[C@@H](CCCNC(=N)N)C(=O)N[C@@H](Cc1ccccc1)C(N)=O | Active | inactive | 21 nM | Active | Active | 
CC[C@H](C)[C@H](NC(=O)[C@H](CNC(=O)c1cc(S(=O)(=O)F)ccc1OC)NC(C)=O)C(=O)N[C@@H](C)C(=O)N[C@H]1COC/C=C\CCC[C@@](C)(C(=O)N[C@H](C(=O)NCC(=O)N[C@@H](CC(=O)O)C(=O)N[C@@H](CCCNC(=N)N)C(=O)N[C@@H](Cc2ccccc2)C(N)=O)[C@@H](C)CC)NC(=O)[C@H](CCCNC(=N)N)NC(=O)[C@H](CC(C)C)NC(=O)[C@H](CCC(N)=O)NC1=O (Ac-[Dap](Benzoyl(2-OMe,5-SO2F))IA[Ser(allyl)]QLR[S5]IGDRF-NH2; staple (Z) 4-8) | Active | inactive | 6.6 nM | Active | Active | 
CC[C@H](C)[C@H](NC(=O)[C@H](CC(=O)O)NC(=O)[C@H](CCCNC(=N)N)NC(=O)[C@H](CC(C)C)NC(=O)[C@H](CCC(N)=O)NC(=O)[C@]1(C)CCC/C=C/CCC[C@](C)(NC(C)=O)C(=O)N[C@@H](CNC(=O)c2cc(S(=O)(=O)F)ccc2OC)C(=O)N[C@@H]([C@@H](C)CC)C(=O)N[C@@H](C)C(=O)N1)C(=O)NCC(=O)N[C@@H](CC(=O)O)C(=O)N[C@@H](CCCNC(=N)N)C(=O)N[C@@H](Cc1ccccc1)C(N)=O (Ac-[S5][Dap](Benzoyl(2-OMe,5-SO2F))IA[S5]QLRDIGDRF-NH2; staple (E) 1-5) | Active | inactive | 30 nM | Active | Active | 
CC[C@H](C)[C@H](NC(=O)[C@H](CCCNC(=N)N)NC(=O)[C@H](CCCNC(=N)N)NC(=O)[C@H](CC(C)C)NC(=O)[C@H](CCC(N)=O)NC(=O)[C@]1(C)CCC/C=C/CCC[C@](C)(NC(C)=O)C(=O)N[C@@H](CNC(=O)c2cc(S(=O)(=O)F)ccc2OC)C(=O)N[C@@H]([C@@H](C)CC)C(=O)N[C@@H](C)C(=O)N1)C(=O)NCC(=O)N[C@@H](CC(=O)O)C(=O)N[C@@H](CCCNC(=N)N)C(=O)N[C@@H](Cc1ccccc1)C(N)=O (Ac-[S5][Dap](Benzoyl(2-OMe,5-SO2F))IA[S5]QLRRIGDRF-NH2; staple (E) 1-5) | Active | inactive | 24 nM | Active | Active | Toxic
CC[C@H](C)[C@H](NC(=O)[C@H](CCCNC(=N)N)NC(=O)[C@H](CCCNC(=N)N)NC(=O)[C@H](CC(C)C)NC(=O)[C@H](CCC(N)=O)NC(=O)[C@H](CCC(=O)O)NC(=O)[C@H](C)NC(=O)[C@@H](NC(=O)[C@H](CNC(=O)c1cc(S(=O)(=O)F)ccc1OC)NC(C)=O)[C@@H](C)CC)C(=O)NCC(=O)N[C@@H](CC(=O)O)C(=O)N[C@@H](CCCNC(=N)N)C(=O)N[C@@H](Cc1ccccc1)C(N)=O (Ac-[Dap](Benzoyl(2-OMe,5-SO2F))IAEQLRRIGDRF-NH2) |  |  | 18 nM |  |  | 
CC[C@H](C)[C@H](NC(=O)[C@H](CNC(=O)c1cc(S(=O)(=O)F)ccc1OC)NC(C)=O)C(=O)N[C@@H](C)C(=O)N[C@@]1(C)CCC/C=C\CCC[C@@](C)(C(=O)N[C@H](C(=O)NCC(=O)N[C@@H](CC(=O)O)C(=O)N[C@@H](C)C(=O)N[C@@H](Cc2ccccc2)C(N)=O)[C@@H](C)CC)NC(=O)[C@H](CCCNC(=N)N)NC(=O)[C@H](CC(C)C)NC(=O)[C@H](CCC(N)=O)NC1=O (Ac-[Dap](Benzoyl(2-OMe,5-SO2F))IA[S5]QLR[S5]IGDAF-NH2; staple (Z) 4-8) | Active | inactive | 12 nM | Active | Active | 
